Laboratory results as given in patent US20150322527A1, “TRANSCRIPTIONAL PROFILING AND BIOMARKER-BASED METHODS FOR IDENTIFYING AND EVALUATING AGENTS FOR ANTIOXIDANT EFFICACY IN COSMETIC SKIN CARE FORMULATIONS” (The Procter & Gamble Company, priority 2010, published 2015).

Tested on: Nrf2-mediated transcription off the antioxidant response element (ARE)
Assay: ARE activation assay (ARE32 luciferase reporter cell line)
Assay type: cell-based
Settings: 24 hrs
Description: An ARE reporter cell line may be developed and used to screen for compounds that increase transcription off the ARE in response to oxidative stress, resulting in an increase in cellular antioxidant defense proteins. An ARE32 reporter cell line was adapted to provide an assay for cosmetic agents which may increase transcription off the ARE and increase expression of Phase 2 enzymes, thus augmenting the body's own antioxidant response. ARE32 is a stable reporter cell line produced by CXR Biosciences by transfecting MCF7 cells with pGL8x-ARE (8 copies of the rat GST ARE linked to the luciferase gene) and pCDNA3.1 which contains the neomycin selectable marker. Selection is performed in the presence of G418 and resistant clones are isolated and screened for induction of luciferase. An exemplary standard is tert-butyl hydroquinone (tBHQ), a known activator of Nrf2. ARE32 is a stable MCF7 cell line containing pGL8x-ARE (8 copies of the rat GST ARE linked to the luciferase gene) and pCDNA3.1 which contains the neomycin selectable marker, which was licensed from CXRbiosciences. Selection was performed in the presence of G418 and resistant clones were isolated. Clones were screened for induction of luciferase in response to tBHQ. ARE32 cells are maintained routinely in the DMEM (phenol red free) containing: • 10% FBS • 50 units/ml penicillin & 50 μg/ml streptomycin • 0.8 mg/ml G418 • Cells are subcultured every 3-4 days. […] Induction of Luciferase with tBHQ • 1. In a 96 well-plate, seed 1×10^4 cells/well in 100 μl DMEM containing 50 units/ml penicillin, 50 μg/ml streptomycin, 0.8 mg/ml G418 and 10% FBS. • 2. Incubate the cells at 37° C. in a 5% CO2 incubator for 24 hrs. • 3. […] (10 mM tBHQ of stock solution was freshly prepared in DMSO) • 4. Add 100 ul of media after treatment, final assay volume 200 uL. • 5. Incubate the cells at 37° C. in CO2 incubator for another 24 hrs. • 6. Assay for luciferase activity with Steady-glo Assay System by following the manufacture's instruction: • a. Remove 100 μL of media • b. Add 100 μl of reconstituted substrate directly to well • c. Incubate 5-10 min shaking. • d. […] Read plate for 5 seconds per well. The ARE activation assay described in Example 3 is employed. To test for transcription off the antioxidant response element, the reporter line is grown, compounds are added, each compound in varying doses, and allowed to incubate for 24 hours. Cells are then lysed and luminescent output is detected and quantified. […] Proposed compounds are screened using the ARE assay set forth in Example 3, above. Table 4 illustrates “ARE screening hits” along with concentrations tested for each compound and the observed percent increase in ARE. […]

| Compound | ARE (% control) (concentration tested 200 μM) | ARE (% control) (concentration tested 0.01%) |
| --- | --- | --- |
| O=C(O)CCCCC1CCSS1 (stereo not drawn) [Alpha-lipoic acid] | 534 |  |
| O=C(/C=C/c1ccc(O)c(O)c1)O[C@H](Cc1ccc(O)c(O)c1)C(=O)O [Rosmarinic acid] | 1211 |  |
| CCCCCC/C=C/C#CCCCCCCCC(=O)O [Xymenynic acid] | 329 |  |
| Umbelliferin |  | 1815 |
